Reference: ChEMBL document CHEMBL1127250, “3,4-Di-o-()-camphanoyl-(+)-ciskhellactone and related compounds: A. new class of potent anti-HIV agents” (Bioorg Med Chem Lett, 1994)

Key:
[1] = tested on: H9; experiment: Compound was tested for inhibitory activity against HIV-1 replication in H9 lymphocyte cells; Activity range >32 but <160; assay type: functional, cell-based; details: Homo sapiens
[2] = Effective concentration against HIV-1 infection in peripheral blood mononuclear cells was determined; assay type: functional; details: Homo sapiens
[3] = tested on: U-937; experiment: Effective concentration against HIV-1 infection in U-937 cell line was determined; assay type: functional, cell-based; details: Homo sapiens
[4] = Therapeutic index was determined; Value is >222 but < 1,111; details: read-out: TI
[5] = tested on: H9; experiment: Effective concentration against HIV-1 replication in H9 lymphocyte cells was determined; assay type: functional, cell-based; details: Homo sapiens
[6] = Therapeutic index was determined; Value is >78049 but < 390244; details: read-out: TI
[7] = Therapeutic index was determined; Value is >3,125 but < 15,625; details: read-out: TI
[8] = tested on: H9; experiment: Compound was tested for inhibitory activity against HIV-1 replication in H9 lymphocyte cells; Activity >6.4 but < 32; assay type: functional, cell-based; details: Homo sapiens
[9] = Therapeutic index was determined; details: read-out: TI
[10] = tested on: H9; experiment: Effective concentration against HIV-1 replication in H9 lymphocyte cells was determined; Activity >6.4 but < 32; assay type: functional, cell-based; details: Homo sapiens
[11] = tested on: H9; experiment: Compound was tested for inhibitory activity against HIV-1 replication in H9 lymphocyte cells; assay type: functional, cell-based; details: Homo sapiens

Row | EC50 [5] [µM] | IC50 [11] [µM] | Structure (SMILES) | selectivity ratio [9] | also measured
1 | 0.00041 |  | CC1(C)Oc2ccc3ccc(=O)oc3c2[C@@H](OC(=O)C23CCC(C)(C(=O)O2)C3(C)C)[C@H]1OC(=O)C12CCC(C)(C(=O)O1)C2(C)C (stereo not given in full) |  | IC50 [1]: < 160 µM; EC50 [2]: 0.029 µM; EC50 [3]: 0.0021 µM; selectivity ratio [4]: > 222; selectivity ratio [6]: < 390000; selectivity ratio [7]: > 3120
2 |  |  | CC1(C)Oc2ccc3ccc(=O)oc3c2[C@H](OC(=O)C23CCC(C)(C(=O)O2)C3(C)C)[C@H]1OC(=O)C12CCC(C)(C(=O)O1)C2(C)C (stereo not given in full) | > 1 | IC50 [8]: < 32 µM; EC50 [10]: < 32 µM
3 | 51 | 1700 | CC1(C)Oc2ccc3ccc(=O)oc3c2[C@H](OC(=O)C23CCC(C)(C(=O)O2)C3(C)C)[C@@H]1OC(=O)C12CCC(C)(C(=O)O1)C2(C)C (stereo not given in full) | > 33.3 | 
4 | 32 | > 32 | CC1(C)Oc2ccc3ccc(=O)oc3c2[C@@H](OC(=O)C23CCC(C)(C(=O)O2)C3(C)C)[C@@H]1OC(=O)C12CCC(C)(C(=O)O1)C2(C)C (stereo not given in full) | > 1 | 
5 | 1.3 | > 52 | CC(=O)O[C@@H]1[C@H](OC(=O)CC(C)C)c2c(ccc3ccc(=O)oc23)OC1(C)C [SUKSDORFIN] | > 40 | 
6 | 0.15 |  | Cc1cn([C@H]2C[C@H](N=[N+]=[N-])[C@@H](CO)O2)c(=O)[nH]c1=O [ZIDOVUDINE] |  | 
